Experimental data from US12374538B2, “Systems and methods for quantifying an analyte extracted from a sample” (Purdue Research Foundation, priority 2014, dated 2025).
“And” between values parts separate entries of the source, which are not always exact repeats. Equal values may be shown once.

System: cholinesterase (ChE)
Conditions: human whole blood diluted 10 times, acetylthiocholine 1.8 mg/mL, 5 min incubation in capillary, vs control
Description: For testing of a particular solvent, 5 μL blood sample (diluted) was injected into the capillary with the extraction solvent plug immediately after the mixing the acetylthiocholine into the blood. After the 5 min incubation in capillary, the TCh/ATch ratio was measured using SFME nanoESI MS. For the control, 5 min after the mixing acetylthiocholine into the diluted blood, the sample was taken and analyzed immediately using SFME nanoESI MS with ethyl acetate as the extraction phase. Spray voltage of 1.5 kV was used for nanoESI.
SFME-nanoESI was applied for monitoring the enzymatic activity of cholinesterase (ChE) in whole blood samples. […] The blood sample was diluted 10 times to slow down the reaction rate as well as to facilitate the slug flows for SFME. The substrate acetylthiocholine iodine was added into the diluted blood sample at a concentration of 1.8 mg/mL, and then 5 μL sample was taken immediately and injected into the capillary with 5 μL extraction phase. The capillary with the sample and the extraction solvent was left in room temperature 25° C. for incubation. The SFME-nanoESI could be performed repeatedly on the same sample and the ratio of the substrate ATCh and the reaction product TCh could be monitored as a function of time to characterize the enzymatic activity of the ChE. […]

Row | Structure (SMILES) | reduction of ChE activity due to contact with extraction solvent
1 | ClC(Cl)Cl [chloroform] | more than 60%
2 | CCOC(C)=O [ethyl acetate] | minimal

System: not given
Conditions: log([solute]octanol/[solute]water), un-ionized compound; cited from earlier work

Row | Structure (SMILES) | Log P (partition coefficient)
3 | CN1C(=O)CC[C@H]1c1cccnc1 [cotinine] | 0.07
4 | CN1[C@H]2CC[C@@H]1[C@@H](C(=O)O)[C@@H](OC(=O)c1ccccc1)C2 [benzoylecgonine] | −0.59 and −0.6
5 | Cc1ccc(/N=C/N(C)/C=N/c2ccc(C)cc2C)c(C)c1 [amitraz] | 5
6 | N[C@@H](Cc1ccccc1)C(=O)O [phenylalanine] | −1.38
